Results taken from PMC8582824, “Targeting DDX3X Helicase Activity with BA103 Shows Promising Therapeutic Effects in Preclinical Glioblastoma Models” (Cancers, 2021).

What was measured:
[1] = tested on: U87 cells; assay: MTS cytotoxicity assay, U87 cells; type: cell-based; details: for mean absorbance at 490 nm (MTS): 72 h
Method: For CellTiter 96® Aqueous One Solution Cell Proliferation Assay (MTS) (Promega, Madison, WI, USA), cells were seeded at 5 × 10^3 per well in 96-well plates in quadruplicate together a control with no cells to evaluate the background. After 24 h, the culture medium was removed, and fresh medium containing increasing concentrations of chemical compounds was added to cells. […] DMSO was the vehicle used for dilution of the compounds, and its final concentration on cells was less than 0.2%. Medium-only containing wells were included as controls. Cells were incubated with compounds at different concentrations for 72 h, then, 20 µL of CellTiter 96® AQueous One Solution Reagent was added into each well. After 3 h at 37 °C in a humidified, 5% CO2 atmosphere, the absorbance at 492 nm was recorded using an EZREAD400 (Biochrom, Cambridge, United Kingdom) plate reader. The average 490 nm absorbance from the “no cell” control wells was subtracted from all other values to yield background-corrected absorbance. Dose–response curves and CC50 values have been calculated by plotting the absorbance data as a function of inhibitor concentrations and fitting the data by least-squares nonlinear regression, according to the method of Marquardt–Levenberg, with the computer program GraphPad Prism 6.0.
(§1) Cells were incubated with a scalar concentration of DDX3X inhibitors, and after 72 h of treatment, cell viability was assessed by cytotoxicity assay. […] Compounds 4, 6, and BA103 were also evaluated against BJ primary fibroblasts; compound 4 has a cytotoxicity value of 84.7 μM; on the contrary, compounds 6 and BA103 were not toxic up to 200 μM concentration. This further excluded a possible nonspecific cytotoxic effect. […] Due to its interesting profile, compound BA103 was further tested against additional pulmonary (A549), breast (MDA-MB-231), colorectal (HCT-116), osteosarcoma (U2OS), rhabdomyosarcoma (RD18), GBM (DBTRG, U87, and U251) and medulloblastoma (DAOY) cancer cell lines.
Figure 5 Cytotoxicity of selected compounds. Compounds were assayed on DU-145, PC3, HepG2, Huh-7, HN6, U251, and U87 cell lines. The concentration of the compound, which reduced the number of viable cells by 50% (CC50), was determined by dose–response curve, and the mean CC50 value for each cell line was calculated by triplicate assays (raw data from U87 and U251 cells with dose–response curves used for the calculation of CC50 in Table S1 and Figure S2).
Table S1: Raw data of optical absorbance at 490 nm from MTS assay in U87 and U251 cells. Tables contain
means with SD of at least 5 different values that were used for preparation of figure 5.

[2] = Human liver microsomal metabolic stability; type: in vitro ADME; details: 37 °C, 60 min
Method: Preliminary in vitro ADME analysis was performed to early evaluate the pharmacokinetic (PK) profile of our compounds (Figure 8). Aqueous solubility was calculated by LC-MS-MS analysis. An aliquot of 1 mg of compound was stirred for 24 h at 27 °C in 1 mL of water. The mixture was filtered, and the quantity of solubilized compound was determined. Passive permeability was determined using parallel artificial membrane permeability assay (PAMPA). Microsomal metabolic stability was determined by LC-UV-MS analysis by incubating compounds with human liver microsomes at 37 °C for 60 min (for details, see the Supporting Information). […]
Microsomal Stability Assay.
Each compound in DMSO solution was incubated at 37 °C for 60 min in 125 mM phosphate buffer (pH 7.4), 5 μL of human liver microsomal protein (0.2 mg mL-1), in the presence of a NADPH-generating system at a final […]
reaction was stopped by cooling on ice and adding 1.0 mL of acetonitrile. The reaction mixtures were then centrifuged, and the parent drug and metabolites were subsequently determined by LC-UV-MS.
Chromatographic analysis was performed with an Agilent 1100 LC/MSD VL system (G1946C) (Agilent Technologies, Palo Alto, CA) constituted by a vacuum solvent degassing unit, a binary high-pressure gradient pump, an 1100 series UV detector, and an 1100 MSD model VL benchtop mass spectrometer.
Chromatographic separation was obtained using a Varian Polaris C18-A column (150-4.6 mm, 5 μm particle size) and gradient elution: eluent A being ACN and eluent B consisting of water. The analysis started with 2% […]
flow rate was 0.8 mL min-1 and injection volume was 20 μL.
The Agilent 1100 series mass spectra detection (MSD) single-quadrupole instrument was equipped with the orthogonal spray API-ES (Agilent Technologies, Palo Alto, CA). Nitrogen was used as nebulizing and drying gas. The pressure of the nebulizing gas, the flow of the drying gas, the capillary voltage, the fragmentor voltage, and the vaporization temperature were set at 40 psi, 9 L/min, 3000 V, 70 V, and 350 °C, respectively.
UV detection was monitored at 280 nm. The LC-ESI-MS determination was performed by operating the MSD in the positive ion mode. Spectra were acquired over the scan range m/z 100-1500 using a step size of 0.1 u.
The percentage of not metabolized compound was calculated by comparison with reference solutions

[3] = tested on: BJ primary fibroblasts; assay: Cytotoxicity against BJ primary fibroblasts; type: cell-based
Method: For CellTiter 96® Aqueous One Solution Cell Proliferation Assay (MTS) (Promega, Madison, WI, USA), cells were seeded at 5 × 10^3 per well in 96-well plates in quadruplicate together a control with no cells to evaluate the background. After 24 h, the culture medium was removed, and fresh medium containing increasing concentrations of chemical compounds was added to cells. The fixed final concentrations were 0.1 μM, 1 μM, 10 μM, and 100 μM. DMSO was the vehicle used for dilution of the compounds, and its final concentration on cells was less than 0.2%. Medium-only containing wells were included as controls. Cells were incubated with compounds at different concentrations for 72 h, then, 20 µL of CellTiter 96® AQueous One Solution Reagent was added into each well. After 3 h at 37 °C in a humidified, 5% CO2 atmosphere, the absorbance at 492 nm was recorded using an EZREAD400 (Biochrom, Cambridge, United Kingdom) plate reader. The average 490 nm absorbance from the “no cell” control wells was subtracted from all other values to yield background-corrected absorbance. Dose–response curves and CC50 values have been calculated by plotting the absorbance data as a function of inhibitor concentrations and fitting the data by least-squares nonlinear regression, according to the method of Marquardt–Levenberg, with the computer program GraphPad Prism 6.0.
as §1

Row | HLM Stability ± SD (Human Liver Microsomal Metabolic Stability) [2] | Compound | mean absorbance at 490 nm (MTS) ([1]; U87, 0,01 uM) | mean absorbance at 490 nm (MTS) ([1]; U87, 0,1 uM) | mean absorbance at 490 nm (MTS) ([1]; U87, 1 uM) | mean absorbance at 490 nm (MTS) ([1]; U87, 10 uM) | mean absorbance at 490 nm (MTS) ([1]; U87, 100 uM) | cytotoxicity value [3] | CC50 ([1]; U87, 72 h)
1 | 91.31 ± 0.1% | CC(C)CCc1cn(-c2ccc(NC(=O)Nc3cccc4cnccc34)cn2)nn1 [Compound 10, 1-(6-(4-Isopentyl-1H-1,2,3-triazol-1-yl)pyridin-3-yl)-3-(isoquinolin-5-yl)urea] | 1,863 | 1,379 | 1,165 | 0,858 | 0,467 |  | 
2 | 97.9 ± 0.3% | CCCCc1nnc(-c2ccc(NC(=O)Nc3ccccc3C(F)(F)F)cc2)[nH]1 [Compound 4, 1-(4-(5-Butyl-4H-1,2,4-triazol-3-yl)phenyl)-3-(2-(trifluoromethyl)phenyl)urea] | 1,906 | 1,293 | 0,941 | 0,784 | 0,162 | 84.7 µM | 
3 | 97.0 ± 0.5% | CCCCc1cn(-c2ccc(NC(=O)Nc3ccccc3C(F)(F)F)cc2)nn1 [BA103, 1-(4-(4-Butyl-1H-1,2,3-triazol-1-yl)phenyl)-3-(2-(trifluoromethyl)phenyl)urea] | 1,598 | 1,132 | 0,959 | 0,804 | 0,566 | > 200 µM | low micromolar range
4 | 90.32 ± 0.7% | CCCCn1nnc(-c2ccc(NC(=O)Nc3ccccc3C(F)(F)F)cc2)n1 [Compound 6, 1-(4-(2-Butyl-2H-tetrazol-5-yl)phenyl)-3-(2-(trifluoromethyl)phenyl)urea] | 1,944 | 1,964 | 2,007 | 1,387 | 0,540 | > 200 µM | 
5 | 88.9 ± 0.9% | CCCCc1nnc(-c2ccc(NC(=O)Nc3ccccc3C(F)(F)F)cc2)o1 [Compound 3, 1-(4-(5-Butyl-1,3,4-oxadiazol-2-yl)phenyl)-3-(2-(trifluoromethyl)phenyl)urea] | 1,350 | 1,140 | 1,178 | 1,065 | 0,568 |  | 

Row | Compound | HLM Stability ± SD (Human Liver Microsomal Metabolic Stability) [2] | mean absorbance at 490 nm (MTS) ([1]; U87, 0,01 uM) | mean absorbance at 490 nm (MTS) ([1]; U87, 0,1 uM) | mean absorbance at 490 nm (MTS) ([1]; U87, 1 uM) | mean absorbance at 490 nm (MTS) ([1]; U87, 10 uM) | mean absorbance at 490 nm (MTS) ([1]; U87, 100 uM) | cytotoxicity value [3] | CC50 ([1]; U87, 72 h)
6 | CCCCc1cn(-c2ccc(NC(=O)Nc3ccccc3C)cc2)nn1 [Compound 1, reference compound] | 99.0 ± 0.6% | 2,027 | 2,018 | 2,000 | 1,584 | 0,465 |  | 
